Results from US4478826A, “Renin inhibitory peptides” (Merck & Co., Inc., priority 1982, dated 1984).
Square brackets hold non-standard residues; d marks the D form. Peptide text beside a SMILES is read from it. * marks the point of attachment. Sta = CC(C)C[C@H](N)[C@@H](O)CC(=O)O; Isobutyryl = CC(C)C(=O)*

Molecular target: T1, human renin (Homo sapiens, UniProt P00797)
T1 construct: Human plasma (lyophilized) was used as the source of human substrate and human renin; from tissue; host or cells: human plasma (lyophilized)
T1 sequence (P00797 67-406): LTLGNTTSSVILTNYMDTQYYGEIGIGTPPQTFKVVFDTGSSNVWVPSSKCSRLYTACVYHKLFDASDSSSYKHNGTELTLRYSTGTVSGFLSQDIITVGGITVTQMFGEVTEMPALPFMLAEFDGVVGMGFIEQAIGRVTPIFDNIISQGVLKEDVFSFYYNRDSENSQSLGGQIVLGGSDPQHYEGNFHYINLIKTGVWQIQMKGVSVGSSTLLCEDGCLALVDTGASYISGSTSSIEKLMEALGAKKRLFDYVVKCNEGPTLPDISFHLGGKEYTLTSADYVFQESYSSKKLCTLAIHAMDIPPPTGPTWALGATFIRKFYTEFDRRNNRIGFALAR
Test: Human renin assay (radioimmunoassay of angiotensin I, human plasma)
Assay type: biochemical
Settings: human plasma (lyophilized) as source of human substrate and human renin; read-out: I50 (M) Human renin
Source text: This method employs a radioimmunoassay technique to measure the amount of angiotensin I product of renin cleavage of its substrate. Human plasma (lyophilized) was used as the source of human substrate and human renin. I50 values were obtained by plotting data at several inhibitor concentrations.

CC(C)C[C@H](NC(=O)[C@H](Cc1c[nH]cn1)NC(=O)[C@H](Cc1ccccc1)NC(=O)[C@@H]1CCCN1C(=O)[C@H](Cc1c[nH]cn1)NC(=O)C(C)C)[C@@H](O)CC(=O)N[C@@H](C)C(=O)N[C@@H](Cc1ccccc1)C(N)=O [IBU--His--Pro--Phe--His--Sta--Ala--Phe--NH2] (Isobutyryl-HPFH[Sta]AF-NH2)
IC50: 4.2e-08 M
